Earlier results in patent publication US5484728A (priority 1994, dated 1996).

CCOP(=S)(OCC)Oc1cc(C)nc(C(C)C)n1 [diazinon]
half-life of diazinon in soil without enzyme present: 226 h
